We go through three substances from US7910551B2, “Gene differentially expressed in breast and bladder cancer and encoded polypeptides” (University of Rochester, priority 2000, dated 2011).

For the test, the system named is B/C.N cells. Description: CML assay: peptide sensitization of B/C.N cells to lysis by tumor-specific CTL. It counts as cell-based, mouse. The note with it: for ability to sensitize B/C.N cells to lysis by tumor-specific CTL: 51Cr release, 4 hours.

On to “L345-54 (I54): ribosomal protein L3 peptide, amino acids 45-54 with Ile 54 (AFLGYKAGMI)”, for which the “ability to sensitize B/C.N cells to lysis by tumor-specific CTL” value (“ability to sensitize B/C.N cells” for short) is “did not”. “L348-56 (I54): ribosomal protein L3 peptide, amino acids 48-56 with Ile 54; target epitope of tumor-specific CTL (GYKAGMIHI)”: the “ability to sensitize B/C.N cells” value is “sensitized B/C.N to lysis”. Besides, the “peptide concentration sufficient to sensitize targets to lysis by CTL” value (B/C.N targets) was 10 nM. For the substance “L348-56 (T54): wild type ribosomal protein L3 peptide 48-56 with Thr 54 (GYKAGMTHI) [reference compound]”, the “ability to sensitize B/C.N cells” value was “did not”. Where the note is “B/C.N targets”, the “peptide concentration that did not sensitize targets to lysis by CTL” value is on record as over 100 mM.
